Laboratory results: patent US12310954B2, “Salivary gland regeneration” (The Regents of the University of California, priority 2018, dated 2025)

Legend:
[1] = continuous oral administration, irradiated mice, vs untreated controls; cited from earlier work
[2] = long term oral use in patients; cited from earlier work
SOX2^+ cells of the SLG = test: Pilocarpine treatment of mice, SOX2/Ki67 immunostaining of sublingual gland; format: in vivo, mouse; settings: wild-type mice, I.P. 4.5 mg/kg, vs saline
Experimental: Adult male C57BL/6 mice (aged between 6 and 8 weeks) were treated with pilocarpine (Sigma-Aldrich, P0472; 0.68 mg/ml in 0.9% sterile saline). Mice were anesthetized using isoflurane and injected I.P. with pilocarpine at a dose of 4.5 mg/kg bodyweight (200 μl), or 0.9% saline as a vehicle control. Mice were euthanized after 18 h and glands processed for immunofluorescent analysis. Whole-mount salivary gland and tissue section immunofluorescence analysis has been previously described (Knox et al., 2010). In brief, tissue was fixed with either ice-cold acetone/methanol (1:1) for 1 min or 4% PFA for 20-30 min followed by permeabilizing with 0.1-0.3% Triton X. Tissue was blocked overnight at 4° C. with 10% Donkey Serum (Jackson Laboratories, ME), 1% BSA (Sigma-Aldrich), and MOM IgG-blocking reagent (Vector Laboratories, CA) in 0.01% PBS-Tween 20. […] Antibodies were detected using Cy2-, Cy3-, or Cy5-conjugated secondary Fab fragment antibodies (Jackson Laboratories) and nuclei stained using Hoechst 33342 (1:1,000, Sigma-Aldrich). Fluorescence was analyzed using a Leica Sp5 confocal microscope and NIH ImageJ software. For immunofluorescent analyses (e.g., FIG. 2D), cells positively stained for markers were counted using ImageJ. Acinar cell size was measured using ImageJ. […]

[3] = long term oral administration; cited from earlier work

## CC[C@@H]1C(=O)OC[C@@H]1Cc1cncn1C [pilocarpine]
[1]
  salivary flow: promoted salivary flow
[2]
  salivary gland function: improves salivary gland function
SOX2^+ cells of the SLG; 18 h post-injection
  percentage of SOX2^+ cells: not significantly changed
SOX2^+ cells of the SLG; sacrificed at 18 h
  percentage of proliferating SOX2^+ cells (SOX2^+Ki67^+ cells): increased
[3]
  tumorigenicity: not shown to be tumorigenic
